Consider one molecule from article PMC7948398, “Rapid kinetics reveal surprising flavin chemistry in bifurcating electron transfer flavoprotein from Acidaminococcus fermentans” (The Journal of Biological Chemistry, 2020).

The assay has as its target T1, EtfAB; EtfaB (EtfAB from which α-FAD was removed) (Acidaminococcus fermentans, UniProt D2RIQ2+D2RIQ3).
T1 construct: gene Acfer_0555; recombinant from pET-11a by autoinduction; AB heterodimer, 66 kDa; EtfAB holds α-FAD and β-FAD; EtfaB made by removing FAD from the A-subunit (phenyl Sepharose, KBr); with Electron transfer flavoprotein subunit alpha
T1 sequence (D2RIQ2 1-263): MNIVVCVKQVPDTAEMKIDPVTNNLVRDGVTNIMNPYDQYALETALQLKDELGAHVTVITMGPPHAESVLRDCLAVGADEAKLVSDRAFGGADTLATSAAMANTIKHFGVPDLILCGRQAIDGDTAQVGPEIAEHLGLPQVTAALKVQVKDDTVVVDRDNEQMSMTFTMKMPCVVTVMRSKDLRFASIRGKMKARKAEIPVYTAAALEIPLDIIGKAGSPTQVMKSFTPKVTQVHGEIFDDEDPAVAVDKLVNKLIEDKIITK
T1 sequence (D2RIQ3 1-340): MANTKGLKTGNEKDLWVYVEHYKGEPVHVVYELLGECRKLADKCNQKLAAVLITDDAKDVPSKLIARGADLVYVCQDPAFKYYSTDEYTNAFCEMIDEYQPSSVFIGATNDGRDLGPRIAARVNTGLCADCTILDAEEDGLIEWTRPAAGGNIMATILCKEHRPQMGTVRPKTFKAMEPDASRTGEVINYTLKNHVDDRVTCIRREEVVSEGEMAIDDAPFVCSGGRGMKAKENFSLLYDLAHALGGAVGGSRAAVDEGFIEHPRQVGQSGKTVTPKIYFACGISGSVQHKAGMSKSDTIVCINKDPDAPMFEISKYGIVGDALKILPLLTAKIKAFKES
Put plainly: anaerobic stopped-flow, kobs at […] nm versus [NADH]. It is filed as biochemical. Conditions: EtfaB form (β-FAD only, α-FAD removed), slow-reacting minor population (~16%); 50 mM potassium phosphate pH 7.0, 4 °C; site at β-FAD.

As a reminder, the Kd is a measure of binding affinity in units of concentration. Low readings indicate a tighter complex, high ones a looser complex. Molecule `NC(=O)C1=CN([C@@H]2O[C@H](COP(=O)(O)OP(=O)(O)OC[C@H]3O[C@@H](n4cnc5c(N)ncnc54)[C@H](O)[C@@H]3O)[C@@H](O)[C@H]2O)C=CC1` [NADH] had a Kd of 3.8 ± 0.2 mM.
